± gives the expanded uncertainty stated by the source.
Conditions: 101.33 kPa, Liquid; for electrical conductivity: Alternating current cell with electrodes; for viscosity: Concentric cylinders viscometry; for mass density: Vibrating tube method

CCC(=O)[NH+](C)C.O=S(=O)([N-]S(=O)(=O)C(F)(F)F)C(F)(F)F
Conditions | electrical conductivity [S/m] | mass density [kg/m3] | viscosity [mPa·s]
273.15 K | 0.053 ± 0.001 | 1546.8 ± 1.7 | 583.6 ± 21
278.15 K | 0.075 ± 0.002 | 1541.52 ± 1.7 | 401.3 ± 13
283.15 K | 0.103 ± 0.002 | 1536.2 ± 1.7 | 284.2 ± 8.5
288.15 K | 0.136 ± 0.003 | 1530.91 ± 1.7 | 207.2 ± 5.6
293.15 K | 0.177 ± 0.004 | 1525.62 ± 1.6 | 154.9 ± 3.9
298.15 K | 0.225 ± 0.005 | 1520.35 ± 1.6 | 117.7 ± 2.7
303.15 K | 0.28 ± 0.006 | 1515.12 ± 1.6 | 91.33 ± 2
313.15 K | 0.415 ± 0.008 | 1504.73 ± 1.6 | 57.92 ± 1.2
323.15 K | 0.585 ± 0.012 | 1494.43 ± 1.6 | 39.33 ± 0.82
333.15 K | 0.787 ± 0.016 | 1484.21 ± 1.6 | 27.84 ± 0.58
343.15 K | 1.01 ± 0.02 | 1474.06 ± 1.6 | 20.58 ± 0.43
353.15 K | 1.28 ± 0.026 | 1463.98 ± 1.6 | 15.67 ± 0.33
363.15 K | – | 1453.97 ± 1.6 | 12.28 ± 0.26

CC(=O)[NH+](C)C.O=S(=O)([N-]S(=O)(=O)C(F)(F)F)C(F)(F)F [N,N-dimethylacetamidium bis(trifluoromethanesulfonyl)amide]
Conditions | electrical conductivity [S/m] | mass density [kg/m3] | viscosity [mPa·s]
313.15 K | 0.403 ± 0.008 | 1549.8 ± 1.7 | 67.83 ± 1.4
323.15 K | 0.574 ± 0.011 | 1539.4 ± 1.7 | 44.71 ± 0.93
333.15 K | 0.782 ± 0.016 | 1529.1 ± 1.7 | 31.31 ± 0.65
343.15 K | 1.02 ± 0.02 | 1518.6 ± 1.6 | 22.85 ± 0.48
353.15 K | 1.29 ± 0.026 | 1508.1 ± 1.6 | 17.35 ± 0.36
363.15 K | – | 1497.8 ± 1.6 | 13.51 ± 0.28

CC(=O)N(C)C [N,N-dimethylethanamide]
Conditions | mass density [kg/m3] | viscosity [mPa·s]
273.15 K | 959.16 ± 0.98 | 1.41 ± 0.03
278.15 K | 954.56 ± 0.98 | 1.29 ± 0.03
283.15 K | 949.95 ± 0.97 | 1.19 ± 0.03
288.15 K | 945.35 ± 0.97 | 1.09 ± 0.02
293.15 K | 940.74 ± 0.96 | 1 ± 0.02
298.15 K | 936.13 ± 0.96 | 0.946 ± 0.02
303.15 K | 931.51 ± 0.96 | 0.883 ± 0.019
313.15 K | 922.26 ± 0.95 | 0.772 ± 0.017
323.15 K | 912.99 ± 0.94 | 0.692 ± 0.015
333.15 K | 903.68 ± 0.93 | 0.614 ± 0.014
343.15 K | 894.31 ± 0.92 | 0.553 ± 0.013
353.15 K | 884.9 ± 0.91 | 0.502 ± 0.011
363.15 K | 875.43 ± 0.9 | 0.459 ± 0.011

CCC(=O)N(C)C [N,N-dimethylpropionamide]
Conditions | mass density [kg/m3] | viscosity [mPa·s]
273.15 K | 942.45 ± 3.8 | 1.44 ± 0.03
278.15 K | 938.02 ± 3.8 | 1.32 ± 0.03
283.15 K | 933.6 ± 3.8 | 1.21 ± 0.03
288.15 K | 929.18 ± 3.8 | 1.11 ± 0.03
293.15 K | 924.75 ± 3.8 | 1.02 ± 0.02
298.15 K | 920.32 ± 3.7 | 0.958 ± 0.022
303.15 K | 915.93 ± 3.7 | 0.892 ± 0.021
313.15 K | 907.04 ± 3.7 | 0.778 ± 0.018
323.15 K | 898.13 ± 3.6 | 0.696 ± 0.017
333.15 K | 889.17 ± 3.6 | 0.618 ± 0.015
343.15 K | 880.17 ± 3.6 | 0.556 ± 0.013
353.15 K | 871.11 ± 3.5 | 0.504 ± 0.012
363.15 K | 861.99 ± 3.5 | 0.46 ± 0.011

CN(C)C=O [dimethylformamide]
Conditions | mass density [kg/m3] | viscosity [mPa·s]
273.15 K | 967.56 ± 0.12 | 1.14 ± 0.02
278.15 K | 962.83 ± 0.12 | 1.06 ± 0.02
283.15 K | 958.1 ± 0.12 | 0.979 ± 0.021
288.15 K | 953.37 ± 0.12 | 0.891 ± 0.019
293.15 K | 948.61 ± 0.12 | 0.845 ± 0.018
298.15 K | 943.85 ± 0.13 | 0.81 ± 0.017
303.15 K | 939.07 ± 0.13 | 0.765 ± 0.016
313.15 K | 929.5 ± 0.13 | 0.684 ± 0.015
323.15 K | 919.86 ± 0.14 | 0.615 ± 0.013
333.15 K | 910.17 ± 0.14 | 0.535 ± 0.012
343.15 K | 900.41 ± 0.14 | 0.484 ± 0.011
353.15 K | 890.57 ± 0.15 | 0.436 ± 0.01
363.15 K | 880.65 ± 0.15 | 0.398 ± 0.009

Reference: the NIST ThermoML archive (doi:10.1021/acs.jced.6b00575)
